Reference: patent publication US20250275946A1, “COMBINATION THERAPY FOR THE TREATMENT OF CANCER” (UNM RAINFOREST INNOVATIONS, priority 2021, published 2025)
Where two headings read alike, the source gives them in different places.

Columns and labels:
[1] = tested on: patient-derived tumor colonoids; assay: RNA-seq analysis of patient-derived tumor colonoids treated with DFO; format: cell-based, human; conditions: DFO 100 μM in KGMG medium, 4 days
Description: The adenoma colonoids culture was described previously. See Xue, et al., Cell Metab, 2016; 24: pp. 447-461). The culture plates were placed in a 37° C. incubator for 30 min to solidify the Matrigel, followed by the addition of 1 mL serum-free Keratinocyte Growth Media Gold (KGMG, Catalogue: 00195769, Lonza, Basel, Switzerland). After 24 hours of plating, colonoids were treated with DFO (0 or 100 μM) in KGMG for 4 days with fresh media change every other day. At the end of the experiment, culture media was aspirated off, and colonoids were lysed with Trizol to extract RNA.
RNA sequencing libraries were prepared using the TruSeq RNA library prep kit v2 (Illumina) following the manufacturer's recommended protocol. The libraries were sequenced using single-end 50-cycle reads on a HiSeq 4000 sequencer (Illumina) at the University of Michigan DNA Sequencing Core Facility. Raw sequencing read quality was assessed utilizing FastQC. Reads were aligned to the reference human transcriptome (UCSC) using STAR 2.5.2a. Default parameters were used for the alignment, with the exception of “--outFilterMultimapNmax 10” and “--sjdbScore 2”. Expression quantification and differential expression analysis between DFO and control tumor colonoids were conducted using CuffDiff v 2.1.1 using default settings. […]

[2] = cited from earlier work
[3] = mice; cited from earlier work
[4] = tested on: advanced hepatocellular carcinoma; conditions: cohort of 10 advanced hepatocellular carcinoma; cited from earlier work
cancer cells = conditions: cited from earlier work
[5] = humans; cited from earlier work
B-family DNA polymerases = conditions: aphidicolin combined with CHK1 inhibitors; cited from earlier work
SW480 cells = assay: MTT assay in SW480 cells; format: cell-based, human; conditions: 48 hours
Description: (§1) Human HCT116, RKO, SW480, HEK293T and murine MC38 CRC cells were maintained at 37° C. in 5% CO2 and cultured in Dulbecco's modified Eagle medium (DMEM) supplemented with 10% fetal bovine serum (FBS) and 1% penicillin and streptomycin (VWR, Radnor, PA). HCT116 p53+/+ and p53−/− cells were a kind gift from Professor Bert Vogelstein at the Johns Hopkins University. For generating stable cell lines, MC38 cells were transfected with a mouse shTFRC plasmid (TRCN0000375695, Sigma, St. Louis, MO) or a mouse shPOLD1 plasmid (TRCN0000428858, Sigma), RKO cells were transfected with a human shPOLD1 plasmid (TRCN0000007924, Sigma) and selected with 1 μg/ml puromycin.
(§2) Cells were plated at a concentration of 5×10^4 cells/mL in a 24 well plates. 125 μL 5 mg/mL MTT (Sigma, MO) was added to each plate and incubated for 30 min. Dimethyl sulfoxide (DMSO) was added and absorbance was measured at 570 nm using a BioTek Synergy HTX Multi-Mode Microplate Reader.

[6] = tested on: HCT116, SW480 or RKO cancer cells; assay: Immunoblotting analysis in human colon-derived cancer cells; format: cell-based
Description: as §1
Cells and tumor tissues were lysed with radioimmunoprecipitation assay buffer. After incubation, cell extracts were centrifuged and the supernatant was collected for Bradford assay to quantify protein concentration by a BioTek Synergy HTX Multi-Mode Microplate Reader (BioTek, Winooski, VT). Equal amounts (20-50 μg) of protein were loaded for sodium dodecyl sulfate polyacrylamide gel electrophoresis (SDS-PAGE). The proteins inside the gels were transferred onto nitrocellulose membrane with a wet transfer method. The membranes were blocked with 3% milk for 1 hour. Primary antibodies were incubated overnight. Secondary antibodies were incubated for 1 hour. Antibodies for ferritin heavy chain (FTH1, #3998), IRP2 (#37135), active beta catenin (#8814), Anti-rabbit IgG HRP-linked Antibody (#7074) and Anti-mouse IgG HRP-linked Antibody (#7076) were from Cell signaling Technology (Danvers, MA). Primary antibodies for TFRC (sc-393719), HIF-1α, (sc-13515), HIF-2a (sc-13596), pS6 (sc-514033), pS6K (sc-8418), RRM2 (sc-398294), p-p53 (sc-377567), p53 (sc-6243), c-MYC (sc-40), GAPDH (sc-47724), Cyclin D1 (sc-718) and Actin (sc-8432) were from Santa Cruz Biotechnology (Dallas, TX). p-RPA2 (PA5-39809) was from Invitrogen (Carlsbad, CA). POLD1 (15646-1-AP), p-CHK1 (28805-1-AP), E2F1 (66515-1-Ig), Axin2 (20540-1-AP) and TNKS (18030-1-AP) were from Proteintech (Rosemont, IL).

MC38 cells [7] = assay: Immunoblotting analysis in MC38 cells; format: cell-based, murine; conditions: MC38, 10 μM DFX and/or 10 μM 5-FU, 48 hours, FIG. 7Q
Description: as §1
Cells and tumor tissues were lysed with radioimmunoprecipitation assay buffer. After incubation, cell extracts were centrifuged and the supernatant was collected for Bradford assay to quantify protein concentration by a BioTek Synergy HTX Multi-Mode Microplate Reader (BioTek, Winooski, VT). Equal amounts (20-50 μg) of protein were loaded for sodium dodecyl sulfate polyacrylamide gel electrophoresis (SDS-PAGE). The proteins inside the gels were transferred onto nitrocellulose membrane with a wet transfer method. The membranes were blocked with 3% milk for 1 hour. Primary antibodies were incubated overnight. Secondary antibodies were incubated for 1 hour. […]

MC38 cells [8] = assay: MTT assay in MC38 cells; format: cell-based, murine; conditions: MC38, 10 μM DFX and/or 10 μM 5-FU, 48 hours, FIG. 7P
Description: as §1, §2

[9] = tested on: xenografts from MC38 cells; assay: Subcutaneous MC38 xenograft combination therapy in C57BL/6 mice; format: in vivo; conditions: 20 mg/kg DFX every other day, 1 mg/kg 5-FU daily, or combination, FIG. 7R
Description: For subcutaneous xenograft study, 1×10^6 syngeneic MC38 cells with Tfrc or Pold1 knockdown were injected into the flanks of C57BL/6 mice. Two weeks later, mice were sacrificed and tumors were collected. For combination therapy, when tumors are palpable at one week after subcutaneous injection of MC38 cells, C57BL/6 mice were treated with vehicle, 20 mg/kg DFX for every other day, 1 mg/kg 5-fluorouracil (5-FU) daily, or the combination of DFX and 5-FU.

MC38 cells [10] = assay: Ferro-Orange staining of cellular ferrous iron; format: cell-based, murine; conditions: FIG. S6D
Description: Cells (2×10^5 cells/well) were plated into 24 well plates. After seeding, pre-warmed DMEM containing 0.5 μM ferroOrange (dojindo, Rockville, MD), was incubated at 37° C. for 30 min. After incubation, the cell images were taken. Representative images were taken using the RFP channel of an Invitrogen™ EVOS™ FL Auto Imaging System (Thermo Fisher Scientific, Waltham, MA). Fluorescence intensity was quantified using a SpectraMax M2 Microplate Reader (Molecular Devices, Radnor, PA) at excitation 543 nm and emission 580 nm. The intensity was normalized with protein concentrations.

CC(=O)N(O)CCCCCNC(=O)CCC(=O)N(O)CCCCCNC(=O)CCC(=O)N(O)CCCCCN [DFO, deferoxamine]
decrease of POLD1 gene expression (RNA-seq) [1]: 4.31 fold
decrease of RRM2 gene expression (RNA-seq) [1]: 3.28 fold
circulation half-life ([2]; humans): approximately 20 min
circulation half-life ([2]; in vivo): extremely short
circulation half-life [3]: ~5 min
severe adverse events [4]: without severe adverse events

c1ccc(CNC2CC(NCc3ccccn3)CC(NCc3ccccn3)C2)nc1 (stereo not drawn) [tachpyridine, N,N′,N″-tris(2-pyridylmethyl)-cis,cis-1,3,5-triaminocyclohexane]
sensitivity to ionizing radiation induced DNA damage (cancer cells; cancer cells (not noncancer cells)): sensitizes cancer cells
cell cycle (cancer cells; via ATR-dependent activation of CHK1): induces G2 cell cycle arrest

C[C@@]1(CO)[C@H](O)CC[C@@]2(C)[C@H]1CC[C@H]1C[C@@H]3C[C@@]12CC[C@]3(O)CO [aphidicolin]
toxicity [5]: too toxic to be used in humans
cancer cell proliferation (B-family DNA polymerases): synergistic inhibition

CNCc1ccc(-c2cc(-c3nc(-c4ccc(S(=O)(=O)C(C)C)cc4)cnc3N)on2)cc1 [VE-822]
synergistic effect on cell growth (MTT) (SW480 cells; SW480 and MC38 cells, 10 μM DFX, 10 uM VE-822 or 100 nM Prexasertib, FIG. S7G, S7H): synergistic effect was further validated

CCc1ccc(/C=C2/SC(=S)NC2=O)cc1 [10058-F4]
E2F1 and POLD1 protein ([6]; SW480 cells, c-Myc inhibitor overnight, FIG. S5G): reduced

COc1cccc(OCCCN)c1-c1cc(Nc2cnc(C#N)cn2)n[nH]1 [Prexasertib]
synergistic effect on cell growth (MTT) (SW480 cells; SW480, 10 μM DFO and/or 100 nM Prexasertib, FIG. S7F): synergistic effect was further validated

O=c1[nH]cc(F)c(=O)[nH]1 [5-FU, 5-fluorouracil]
DDR of DFX (immunoblotting) (MC38 cells [7]): potentiated
growth suppressive effect of DFX in vitro (MTT) (MC38 cells [8]): potentiated
growth suppressive effect of DFX in vivo (tumor weight) [9]: potentiated

Oc1nc(-c2ccc(C(F)(F)F)cc2)nc2c1CSCC2 [XAV939]
suppressive effect of DFO on c-Myc, E2F1, POLD1 and Cyclin D1 ([6]; SW480 cells, DFO and/or XAV939, FIG. 5N): potentiated
expression of TNKS and Axin2 ([6]; SW480 cells, FIG. 5N): increased
iron-repressed Axin2 ([6]; SW480 cells, FS and/or XAV939, FIG. 5O): rescued
c-Myc, E2F1, POLD1 and Cyclin D1 protein ([6]; SW480 cells, even with iron supplementation, FIG. 5O): suppressed

ferrous sulfate [FS]
rescue of DFO-decreased POLD1 ([6]; HCT116 cells, 100 μM DFO and different doses of FS, FIG. 5E): can rescue
orange fluorescence signal (cellular ferrous iron) (MC38 cells [10]): greatly increased
